The source of these data is patent US11440822B2, “Methods and uses of dissolved organic material fractions for binding metal ions” (priority 2016, dated 2022).

The series deals with Scenedesmus obliquus. Put plainly: Toxicity of Cd to Scenedesmus obliquus cultures. The conditions noted are these: Cd(NO3)2. Type of series: cell-based. As to the method: Laboratory grown cultures of Scenedesmus obliquus were obtained from the Canadian Phycological Culture Center (CPCC) in Waterloo, Ontario. The cells were grown using a bold basal media (BBM) at standard light regimes (16:8 h light to dark) fixed light intensity of 90-100 μmol photons […] and fixed temperature of 21° C. constantly aerated in a growth chamber.
Four algal cultures were grown in the presence of varying levels of Cd: control (0 μL^−1 Cd); EC20 (19.5 μL^−1Cd); EC30 (46.4 μL^−1 Cd) and EC40 (78.8 μL^−1 Cd) starting at 1 million cells per mL for Replicate 1 and 2 million cells per mL for Replicate 2. The cells were harvested in early stationary phase for further analysis.

As for `O=[N+]([O-])[O-].O=[N+]([O-])[O-].[Cd+2]` [Cd, Cd(NO3)2], the “toxicity of Cd, EC20” value is 19.5 μL^−1Cd; the “toxicity of Cd, EC30” value is 46.4 μL^−1 Cd; the “toxicity of Cd, EC40” value came out at 78.8 μL^−1 Cd.
